Data set [1] has as its system P. berghei oocyst intensity in Anopheles stephensi mosquitoes. The data set is described as follows: P. berghei standard membrane feeding assay (Pb SMFA). The conditions noted are these: read-out: % inhibition Pb SMFA 1 μM (±SEM), inhibition of oocyst intensity at 1 μM.
In data set [2] the test system is P. berghei ookinete development. Put plainly: microbe, parasite or virus in culture. To be noted: Plasmodium berghei.
The subject of data set [3] is HepG2 cells. Put plainly: HepG2 cytotoxicity assay. The conditions noted are these: for IC50: Homo sapiens, HepG2, 48 h, read-out: IC50 HepG2. In outline: (§1)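 Cells at 2,500 per well in MEM with 10% fetal bovine serum and 1% NEAA were exposed to test compounds for 48 h at 37°C, 5% CO2. Viability was read by fluorescence, with percent inhibition calculated against 50 μM doxorubicin (positive) and DMSO (negative) controls.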

The nature of data set [4]: HepG2 cytotoxicity assay. To be noted: human, HepG2 cells. A digest of the protocol: as §1
For data set [5], the system named is P. falciparum female gametocytes. The data set is described as follows: P. falciparum Dual Gamete Formation Assay (Pf DGFA), female readout. To be noted: for Pf DGFA Female, Expt 1 / Pf DGFA Female, Expt 2 / Pf DGFA Female, Expt 3 / Pf DGFA Female, Expt 4: 1µM.
In data set [6] the test system is 3D7-strain P. falciparum asexual parasites. Put plainly: P. falciparum asexual growth inhibition assay (Pf GIA). In kind it is cell-based, Plasmodium falciparum. The conditions noted are these: Plasmodium falciparum. A digest of the protocol: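 3D7 parasites at 0.25% parasitemia, 2% hematocrit were exposed to compounds in dose response for 72 h at 37°C under 5% CO2, 5% O2. Viability read as parasite LDH activity (nitro blue tetrazolium, A650) after freeze-thaw; inhibition scaled to chloroquine (50 μM) and DMSO controls, mean of three biological replicates.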

The test system of data set [7] is P. berghei ookinete development.
For data set [8], the system named is P. falciparum male gametocytes. The data set is described as follows: P. falciparum Dual Gamete Formation Assay (Pf DGFA), male readout. To be noted: for Pf DGFA Male, Expt 1 / Pf DGFA Male, Expt 2 / Pf DGFA Male, Expt 3 / Pf DGFA Male, Expt 4: 1µM.
The mark [9] stands for this setting: read-out: % inhibition, Replicate A.
Where [10] appears, read: read-out: % inhibition, Replicate B.
[11] abbreviates: read-out: IC50 Pb ODA, dose response, at least triplicate.
The mark [12] stands for this setting: 3D7, dose response confirmation, read-out: Pf asexual growth inhibition assays IC50.
Where [13] appears, read: 3D7, 72 h, LDH readout, read-out: IC50 Pf Asexual.

Structures are written as SMILES. Read-outs that look alike come from different tables or passages of the source.

The term inhibition denotes the relative decrease from the control value, in per cent. Broadly, the IC50 is the concentration that gives 50% inhibition. Consider `NC(=O)c1ccccc1Nc1nc(Nc2cccc(N3CCN(CCO)CC3)c2)ncc1Cl` [TCMDC-134114], for which the inhibition at 1 µM in data set [1] was 97%; in data set [2] (setting [9]), 106%; in data set [2] (setting [10]) it was 96.7%; in data set [5] (Plasmodium falciparum, read-out: % inhibition Pf DGFA (female) 1 μM (±SEM), 1 μM, mean of four experiments), -14.7%. The 50% inhibitory concentration (IC50) is below 0.06 µM in data set [2] (setting [11]); 0.0558 µM in data set [2] (read-out: Pb ODA (this manuscript) IC50 (µM), P. berghei ookinete development assay, this manuscript); 0.056 µM in data set [2] (read-out: Pb Ookinete development assay IC50 (µM), dose response confirmation); 41700 nM in data set [3]; 22 nM in data set [6] (setting [12]); 21.5 nM in data set [6] (setting [13]). Also, the “Pb ODA (this manuscript) HepG2 cytoxicity” value in data set [3] (HepG2 cytotoxicity listed with the Pb ODA data set (this manuscript)) is on record as 41.69 µM. In data set [4], the concentration for half-maximal inhibition (IC50) at 48 h came out at 41700 nM. Moreover, in data set [5], the “Pf DGFA Female, Expt 1” value was determined as 18.27. The “Pf DGFA Female, Expt 2” value in data set [5] is -46.13. Further, the “Pf DGFA Female, Expt 3” value in data set [5] was -5.85. Also, the “Pf DGFA Female, Expt 4” value in data set [5] is on record as -25.02. In addition, the “Assay tox ratio Pb ODA (red: <10-fold selectivity; green: >10-fold)” value in data set [7] amounted to 747.08. The “Is compound selective in assay? Pb ODA active?” value in data set [7] is on record as 1 (key: 1: YES; 0: NO). The “Pf DGFA Male, Expt 1” value in data set [8] turned out to be 100.00. The “Pf DGFA Male, Expt 2” value in data set [8] is 99.14. Also, in data set [8], the “Pf DGFA Male, Expt 3” value is recorded as 99.70. The “Pf DGFA Male, Expt 4” value in data set [8] came out at 100.00. Moreover, the “% inhibition Pf DGFA (male) 1 μM (±SEM)” value in data set [8] (1 μM, mean of four experiments) worked out at 99.71%.

For the compound `COc1ccc2ncc(F)c(CCN3CCC(NC(=O)c4ccc5c(n4)NC(=O)CS5)C(O)C3)c2n1` (stereo not drawn) [TCMDC-135907], the inhibition at 1 µM came out at 56.2% in data set [1]; 99.8% in data set [2] (setting [9]); 69.5% in data set [2] (setting [10]); 17.4% in data set [8] (Plasmodium falciparum, read-out: % inhibition Pf DGFA (male) 1 μM (±SEM), 1 μM, mean of four experiments). The IC50 in data set [2] (setting [11]) was above 0.25 µM; in data set [2] (read-out: Pb ODA IC50, this manuscript), 0.38 µM; in data set [3] it was 42200 nM; in data set [6] (setting [12]) it was 2020 nM; in data set [6] (setting [13]) it was 2020 nM; in data set [7] (setting [11]) it was 381 nM. Also, the “HepG2 cytoxicity (Pb ODA, this manuscript)” value in data set [3] (HepG2, this manuscript) is listed as 42.17 µM. The same compound registered a Unified cytotox in data set [3] (HepG2 values of the three screens unified) of 42.17 µM. This compound also gave a half-maximal inhibitory concentration (IC50) at 48 h in data set [4] of 42200 nM. For the same compound, the “Pf DGFA Female, Expt 1” value in data set [5] turned out to be 25.41. The “Pf DGFA Female, Expt 2” value in data set [5] is recorded as -9.01. Moreover, the “Pf DGFA Female, Expt 3” value in data set [5] is listed as -10.92. Besides, the “Pf DGFA Female, Expt 4” value in data set [5] is given as -26.87. The “Is compound selective in assay? Pb ODA active?” value in data set [7] (1: YES, 0: NO) is reported as 1 (1: YES). In addition, the “Pf DGFA Male, Expt 1” value in data set [8] is given as 27.09. Also, in data set [8], the “Pf DGFA Male, Expt 2” value was -8.08. In addition, the “Pf DGFA Male, Expt 3” value in data set [8] was -8.79. Moreover, the “Pf DGFA Male, Expt 4” value in data set [8] turned out to be 59.50.

Values taken from PMC6753678, “Fueling Open Innovation for Malaria Transmission-Blocking Drugs: Hundreds of Molecules Targeting Early Parasite Mosquito Stages” (Frontiers in Microbiology, 2019).
